From patent US10041047B2, “Compositions and methods for epithelial stem cell expansion and culture” (The Brigham and Women's Hospital, Inc., priority 2013, dated 2018)

Columns and labels:
[1] = test system: Lgr5+ stem/progenitor cells derived from the mouse inner ear; assay: Culture of inner ear (cochlear) Lgr5-GFP epithelial cells in Matrigel; format: cell-based; details: single cochlear epithelial cells, 11 days (FIG. 13B)
[2] = test system: Lgr5+ stem cells in small intestinal crypts; assay: Small intestinal crypt culture from Lgr5-GFP mice in Matrigel: cell proliferation and Lgr5-GFP expression; format: cell-based, mouse
Method: Crypts and single Lgr5-GFP cells were isolated as previously described (Sato et al., 2009). Briefly, the proximal half of the small intestine was harvested, opened longitudinally, and washed with cold PBS to remove luminal content. The tissue was then cut into 2-4 mm pieces with scissors and further washed 5-10 times with cold PBS by pipetting up and down using a 10-ml pipette. Tissue fragments were incubated with 2 mM EDTA in PBS for 30 min on ice. After removal of EDTA, tissue fragments were washed with PBS to release crypts. Supernatant fractions enriched in crypts were collected, passed through a 70 μm cell strainer and centrifuged at 300 g for 5 minutes. The cell pellet was re-suspended with cell culture media without growth factors and centrifuged at 150 g to remove single cells. Crypts were then cultured or used for single cell isolation. To obtain single cells, crypts were incubated in culture medium for 45 minutes at 37° C. and triturated with a glass pipette. Dissociated cells were passed through 20 μm cell strainer, negative stained with propidium iodide and single viable GFP-high cells were sorted by flow cytometry (FACS Aria, BD) as previously described (Sato et al., 2009). Small intestinal crypts isolated from Lgr5-EGFP-ires-CreERT2 mice were embedded in Matrigel and cultured under conventional culture conditions in the presence of EGF, Noggin and R-spondin 1 (collectively referred to as ENR) leading to organoids with crypts and villus-like domains and GFP^+ cells at the crypt tips, consistent with previous reports (Sato et al., 2009). Isolated crypts or single cells were cultured as previously described (Sato et al., 2009) with minimal modification. Briefly, crypts or single cells were entrapped in Matrigel and plated at the center of wells in a 24-well plate. After polymerization of Matrigel (growth factor reduced; BD Bioscience), 500 μl of culture medium (Advanced DMEM/F12 (Life Technologies)) was added containing growth factors including EGF (50 ng/ml, Life Technologies), Noggin (100 ng/ml, Peprotech) and R-spondin 1 (500 ng/ml, R&D) and small molecules including CHIR99021 (3 μM, Stemgent) and Valproic Acid (1 mM, Sigma-Aldrich). For comparison of different culture conditions, small molecules or growth factors were added to freshly isolated crypts immediately after plating in Matrigel to test the ability to minimize potential differentiation of the ISC within the crypts and thus sustain crypt cultures. Cell culture media was changed every other day. For single cell culture, cells were embedded in Matrigel containing Jagged-1 peptide (1 μM; AnaSpec) and Y-27632 (10 μM; Tocris) was added for the first 2 days. Cells were passaged either as cell colonies as previously described (Sato et al., 2009) or as single cells. For single cell passage, cell culture medium was removed and Accutase (Life Technologies) was added. After incubation at 37° C. for 10-20 minutes, cell colonies were dissociated into single cells by pipetting. Cells were then washed, embedded in fresh Matrigel and plated into 24-well plates. Cells cultured in the CV condition were passaged every 6 days at a 1:20 split ratio. Approximately half of the cultured crypts contained GFP+ cells, which is consistent with the in vivo GFP expression of Lgr5-GFP mice (FIG. 1).
The growth factors used in the ENR condition provide essential, but not adequate cues to sustain the self-renewal of Lgr5^+ stem cells. To identify factors essential to maintaining the self-renewal status of intestinal stem cells, selected small molecules that modulate signaling pathways of ISCs, such as Wnt, Notch, and BMP, were tested under the ENR condition, using the Lgr5-GFP reporter.
CHIR is a highly-specific GSK3 inhibitor that activates the Wnt/β-catenin signaling pathway (Bain et al., 2007), and has been used to maintain the self-renewal state of embryonic stem cells (Ying et al., 2008). […]

[3] = test system: Lgr5+ stem cells from the colon; assay: Colon crypt culture, Lgr5-GFP expression; format: cell-based, mouse; details: colon crypts (FIG. 3F)
Description: FIGS. 3A and 3B depict colony numbers and live single cell numbers, respectively, from triplicate wells enumerated at each time point. Error bars indicate S.D. In FIG. 3A, the series are, from left to right, Day 0, Day 2, Day 4, Day 6, Day 8, and Day 10. FIG. 3C depicts FACS sorting of freshly isolated single Lgr5-GFP+ cells. A GFP^high single cell population was collected. Representative FACS analysis and the gating strategy to define the GFP+ cell population is shown. […] The GFP-population represents Lgr5- cells as well as Lgr5+/GFP- cells (i.e. GFP silenced stem cells), which is present in all unsorted crypt cultures, but not in sorted single Lgr5-GFP cell cultures (See FIG. 2C). A total of 10,000 live cells were analyzed for each sample. FIG. 3D depicts growth factor requirements for self-renewal of Lgr5+ stem cells in the CV culture condition. Crypts were cultured for 6 days in the presence of CHIR and VPA, with EGF, Noggin, R-spondin 1 and their combinations, as indicated. E: EGF (50 ng/ml); N: Noggin (100 ng/ml); R: R-spondin 1 (500 ng/ml); […] (1 mM). FIG. 3E depicts crypts cultured for 6 days in multiple conditions as indicated. GFP and brightfield images are shown. Scale bars: 200 μm. FIG. 3F depicts morphology and Lgr5-GFP expression of colon crypts cultured in ENR, ENR-C and ENR-CV conditions. […]

[4] = test system: Notch pathway genes (Notch1, Hes1, Atoh1); assay: Real-time RT-PCR of Notch pathway genes in cultured crypts; format: cell-based, mouse; details: VPA added to ENR or ENR-C for 24 hours
Method: Crypts were cultured in ENR-C condition with or without DAPT (D, 5 μM) and varying concentration of VPA (V, 0.25-4 mM) for 3 days. […] FIGS. 11B and 11C depict crypts cultured in the ENR (FIG. 11B) or ENR+CHIR (FIG. 11C) conditions for 4 days followed by addition of VPA at different concentrations for another 24 hours. The expression of Notch1, Hes1 and Atoh1 were analyzed by Real-time RT-PCR.
To investigate the effect of VPA on the activation of the Notch pathway, cells cultured in ENR or ENRC conditions were treated with VPA and analyzed for the expression of Notch pathway genes.

[5] = test system: human small intestinal crypts; assay: Culture of human small intestinal crypts: LGR5 expression (RT-PCR) and cell number; format: cell-based; details: cell numbers at day 9 after seeding (FIG. 25A)
Description: Human small intestinal crypts were isolated from a resected normal small intestinal specimen and cultured as described in Example 1. The same cell culture solutions used in the culture of mouse small intestinal stem cells/crypts, which comprise a combination of CHIR99021 and VPA or Tubastatin A added to the ENR (EGF, Noggin, R-Spondin 1) condition, were compared to published cell culture solutions for human intestinal stem cells/crypts (Jung et al., 2011; Sato et al., 2011). RT-PCR was used to assess the maintenance of epithelial stem cells in the culture, specifically by determining the self-renewal or differentiation status. LGR5 was used as a stem cell marker and ALPI, MUC2, CHGA and LYZ were used as differentiation markers. Cell growth was assessed by counting the cell number in the cultures and by observing the morphology and size of colonies.

[6] = crypts cultured 6 days, agent added to ENR condition
[7] = multiple concentrations (FIG. 9E)

Row | Compound | GFP expression [1] | cell proliferation [1] | colony-forming efficiency [1] | GFP expression (percentage and relative GFP intensity of GFP+ cells) [2, 6] | cell proliferation of crypt cells (organoid size and cell numbers) ([2]; crypts cultured 6 days, agent added to ENR condition, compared to ENR) | need of R-Spondin1 to promote GFP expression ([2]; increasing the concentration of CHIR, crypts 6 days) | GFP expression of Lgr5+ stem cells from the colon [3] | expression of Hes1 [4] | expression of Notch1 [4] | rescue of cell proliferation and GFP expression following Notch inhibition ([2]; ENR-C with DAPT 5 μM and VPA 0.25-4 mM, 3 days) | GFP expression at multiple concentrations [2, 7] | cell proliferation at higher concentration [2, 7] | proliferation of human small intestinal crypts (cell number) [5]
1 | Cc1cnc(-c2cnc(NCCNc3ccc(C#N)cn3)nc2-c2ccc(Cl)cc2Cl)[nH]1 [CHIR99021, 6-[[2-[[4-(2,4-Dichlorophenyl)-5-(5-methyl-1H-imidazol-2-yl)-2-pyrimidinyl]amino]ethyl]amino]-3-pyridinecarbonitrile] | not CHIR alone | not CHIR alone | not CHIR alone | increased the percentage and relative GFP intensity | promoted the proliferation | eliminated the need of R-Spondin1 | – | – | – | – | – | – | –
2 | CCCC(CCC)C(=O)O [Valproic Acid] | – | – | – | significantly increased | – | – | promoted GFP expression | moderately decreased | moderately decreased | rescued | maintained GFP expression | marked proliferation inhibition effect | increased cell proliferation
